Here are results for 2 molecules from patent US11020371B2, “Anti-norovirus composition and utilization thereof” (YAIZU SUISANKAGAKU INDUSTRY CO., LTD., priority 2015, dated 2021).

Structures are written as SMILES.

In assay [1] the test system is Murine norovirus strain S7. Put plainly: Test Example 1: antiviral activity against murine norovirus (virus inactivation, TCID50 on RAW 264.7 cells). In kind it is cell-based. The settings on record: log(TCID50 untreated) - log(TCID50 treated); 60 min reaction; theaflavin purified product and tannic acid 1.5 mg/mL in 25% ethanol-added medium; products A and B stock solution. From the text: [Test Method] […] Murine norovirus strain S7 was obtained and used. (2) Cell A RAW 264.7 cell being a cell line derived from a murine macrophage (ATCC (American Type Culture Collection) TIB-71) was obtained and used. […] The theaflavin-containing purified extract (hereinafter referred to as “theaflavin purified product”) obtained in Production Example 2 was used as a test sample. Moreover, as a test sample for comparison, tannic acid having nonspecific protein binding ability and also reported as to effectiveness against a norovirus, and products A and B being the existing anti-virus products were used. […] The theaflavin purified product was dissolved in dimethyl sulfoxide to be 71.7 mg/mL, and the resultant material was used in the test described below. Tannic acid was dissolved in dimethyl sulfoxide to be 169.9 mg/mL, and the resultant material was used in the test described below. […] A RAW 264.7 cell was monolayer cultured in a well of a 96-well plate, and washed twice with PBS (Phosphate Buffered Saline), and 200 μL of cell maintenance medium (2% fetal bovine serum-containing Dulbecco's Modified Eagle Medium (DMEM)) was added, and the resultant material was used in the test described below. (6) Anti-Virus Test For each test sample, a concentration was adjusted as described below, and the resultant material was applied as a test solution. […]

The test system of assay [2] is feline calicivirus. Description: Test Example 3: anti-virus activity against feline calicivirus No. 2 (concentration, with or without 25% ethanol; TCID50 on CRFK cells). In kind it is cell-based. The settings on record: only 25% ethanol, no addition of theaflavin purified product; 60 min reaction.
Description: A cytopathic effect (CPE) was observed and a 50% tissue culture infectious dose (TCID50) being an indicator of a virus infectivity titer was calculated by the Behrens-Karber method. Moreover, a virus test solution untreated with the test sample was prepared in the same procedure, and the cytopathic effect was also observed on a cell to which the virus test solution was inoculated to determine a 50% tissue culture infectious dose (log (TCID50 value)). A reduction value of the virus infectivity titer by the test sample was calculated according to the formula (1) described below.
Anti-virus activity of the test sample against feline calicivirus was examined in the same manner as in Test Example 2 except that “(4) Preparation of sample for anti-virus test” and “(6) Anti-virus test” were conducted as described below.
(4) Preparation of Sample for Anti-Virus Test
A theaflavin purified product was dissolved in dimethyl sulfoxide to be 0.717 mg/mL (low concentration), 7.17 mg/mL (medium concentration) and 71.7 mg/mL (high concentration), and the resultant material was used in the test described below.
Then, 5 μL of a feline calicivirus solution and 45 μL of the test solution were mixed, and reacted for 60 minutes.
To the reaction liquid, 450 μL of serum-free Eagle's MEM medium was added to stop the reaction. […]

As for `O=C(OC[C@H]1O[C@@H](OC(=O)c2cc(O)c(O)c(OC(=O)c3cc(O)c(O)c(O)c3)c2)[C@H](OC(=O)c2cc(O)c(O)c(OC(=O)c3cc(O)c(O)c(O)c3)c2)[C@@H](OC(=O)c2cc(O)c(O)c(OC(=O)c3cc(O)c(O)c(O)c3)c2)[C@@H]1OC(=O)c1cc(O)c(O)c(OC(=O)c2cc(O)c(O)c(O)c2)c1)c1cc(O)c(O)c(OC(=O)c2cc(O)c(O)c(O)c2)c1` [Tannic acid], the “Reduction value of virus infectivity titer Average” value in assay [1] was determined as 0.5.
`CCO` [ethanol]: in assay [2], the “Average reduction value of virus infectivity titer” value came out at 0.5.
